# Laboratory results reported in ChEMBL document CHEMBL4831533, “Novel Substituted 1,6-Naphthyridines as CDK 5 Inhibitors for Treating Kidney Diseases” (ACS Med Chem Lett, 2021).
# Target: Cyclin-dependent kinase 5/CDK5 activator 1 (Homo sapiens, UniProt Q00535)
# Assay: Inhibition of full length human CDK5 (1 to 292 residues)/p25 expressed in baculovirus expression system using FL peptide 29 as a substrate preincubated for 30 mins followed by substrate addition incubated for 60 mins in the presence of ATP by mobility shift assay
# Sequence of Cyclin-dependent kinase 5/CDK5 activator 1 (Q00535 whole entry, the tested form may be a part): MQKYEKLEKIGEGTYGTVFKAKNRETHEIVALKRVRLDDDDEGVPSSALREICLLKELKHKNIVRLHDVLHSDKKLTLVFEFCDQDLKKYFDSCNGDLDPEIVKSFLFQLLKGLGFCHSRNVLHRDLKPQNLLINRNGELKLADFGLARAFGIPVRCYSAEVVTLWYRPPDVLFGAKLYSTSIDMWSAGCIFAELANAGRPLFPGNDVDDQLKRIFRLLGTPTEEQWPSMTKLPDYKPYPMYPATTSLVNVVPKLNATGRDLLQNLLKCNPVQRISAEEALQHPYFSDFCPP
# Sequence of Cyclin-dependent kinase 5/CDK5 activator 1 (Q15078 whole entry, further chain, the tested form may be a part): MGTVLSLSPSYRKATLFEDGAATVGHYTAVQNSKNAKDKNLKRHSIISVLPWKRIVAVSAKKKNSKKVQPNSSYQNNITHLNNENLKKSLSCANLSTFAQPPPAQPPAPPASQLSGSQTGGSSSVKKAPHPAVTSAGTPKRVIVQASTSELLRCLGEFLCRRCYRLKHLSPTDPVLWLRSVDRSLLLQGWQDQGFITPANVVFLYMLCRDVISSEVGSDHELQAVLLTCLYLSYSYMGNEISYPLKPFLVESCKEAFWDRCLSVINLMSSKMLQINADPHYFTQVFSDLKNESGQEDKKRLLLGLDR
row,Structure (SMILES),IC50 [nM]
1,CN1CCC(N(CC(=O)O)c2ccc3cnc(Nc4cccc(S(N)(=O)=O)c4)cc3n2)CC1,< 10
2,CN1CCC([C@@](C)(O)c2ccc3cnc(Nc4ccc(S(C)(=O)=O)cc4)cc3n2)CC1,< 10

# Further lines, results first:
row,IC50 [nM],Structure (SMILES)
1,< 10,CN1CCC([C@@](C)(O)c2ccc3cnc(Nc4cccc(C(N)=O)c4)cc3n2)CC1
2,< 10,CCOC(=O)c1cccc(Nc2cc3nc(SC4CCNCC4)ccc3cn2)c1
3,< 10,CN1CCC(C(=O)c2ccc3cnc(Nc4ccc(-n5cccn5)cc4F)cc3n2)CC1
4,< 10,CN1CCC(S(=O)(=O)c2ccc3cnc(Nc4ccc(N5CCCS5(=O)=O)cc4)cc3n2)CC1
